Reference: patent publication US7592345B2, “Piperazine and [1,4]diazepan derivatives as NK antagonists” (Hoffmann-La Roche Inc., priority 2007, dated 2009)

Target: T1, recombinant human NK3 receptor (Homo sapiens, UniProt P29371)
T1 construct: expressed in transfected cells; host or cells: HEK293 cells (transient expression), membranes
T1 sequence (P29371 1-465): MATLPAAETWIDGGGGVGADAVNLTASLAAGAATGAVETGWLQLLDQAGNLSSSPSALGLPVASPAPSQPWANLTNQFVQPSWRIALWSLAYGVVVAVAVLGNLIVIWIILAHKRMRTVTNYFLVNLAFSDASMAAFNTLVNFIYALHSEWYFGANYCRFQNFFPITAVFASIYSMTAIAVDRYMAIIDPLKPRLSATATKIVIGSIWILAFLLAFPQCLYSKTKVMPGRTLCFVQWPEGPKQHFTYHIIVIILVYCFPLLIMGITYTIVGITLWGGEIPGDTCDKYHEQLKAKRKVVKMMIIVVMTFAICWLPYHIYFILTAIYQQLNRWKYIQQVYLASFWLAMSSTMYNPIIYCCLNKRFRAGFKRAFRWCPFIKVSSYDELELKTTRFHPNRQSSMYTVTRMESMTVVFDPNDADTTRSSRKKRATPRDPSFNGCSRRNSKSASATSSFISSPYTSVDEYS
Test: [3H]SR142801 competition binding assay
Details: [3H]SR142801, membranes from HEK293 cells transiently expressing recombinant human NK3 receptor; read-out: hNK3 Ki
Method in brief: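 Membranes from HEK293 cells transiently expressing human NK3 were incubated 75 min at RT with [3H]SR142801 at its KD and inhibitor (0.0003-10 μM) in Tris-HCl pH 7.4/MnCl2/phosphoramidon/BSA. Nonspecific binding used 10 μM SB222200. Ki from Hill-fitted IC50 via Cheng-Prusoff, duplicate determinations.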

SMILES | Ki [nM]
CC(CCN1CCN(S(C)(=O)=O)CC1)(C(=O)NCc1cccc(C(F)(F)F)c1)c1ccc(Cl)c(Cl)c1 (stereo not drawn) [Example 8, 2-(3,4-Dichloro-phenyl)-4-(4-methanesulfonyl-piperazin-1-yl)-2-methyl-N-(3-trifluoromethyl-benzyl)-butyramide] | 288
C[C@H]1CN(CCC(C)(C(=O)NCc2ccc(OC(F)(F)F)cc2)c2ccc(Cl)c(Cl)c2)CCN1S(C)(=O)=O (stereo partly drawn) [Example 83, 2-(3,4-Dichloro-phenyl)-4-((S)-4-methanesulfonyl-3-methyl-piperazin-1-yl)-2-methyl-N-(4-trifluoromethoxy-benzyl)-butyramide] | 57.1
COc1ccc(CN(C)C(=O)C(C)(CCN2CCN(S(C)(=O)=O)[C@H](C)C2)c2ccc(Cl)c(Cl)c2)cc1F (stereo partly drawn) [Example 31, 2-(3,4-Dichloro-phenyl)-N-(3-fluoro-4-methoxy-benzyl)-4-((R)-4-methanesulfonyl-3-methyl-piperazin-1-yl)-2,N-dimethyl-butyramide] | 109
C[C@H]1CN(CCC(C)(C(=O)N(C)Cc2ccccc2Cl)c2ccc(Cl)c(Cl)c2)CCN1S(C)(=O)=O (stereo partly drawn) [Example 79, N-(2-Chloro-benzyl)-2-(3,4-dichloro-phenyl)-4-((S)-4-methanesulfonyl-3-methyl-piperazin-1-yl)-2,N-dimethyl-butyramide] | 168
CC(CCN1CCN(S(C)(=O)=O)CC1)(C(=O)N[C@@H](CO)c1ccccc1)c1ccc(Cl)c(Cl)c1 (single isomer, unassigned) [Example 129, (S or R)-2-(3,4-Dichloro-phenyl)-N-((R)-2-hydroxy-1-phenyl-ethyl)-4-(4-methanesulfonyl-piperazin-1-yl)-2-methyl-butyramide] | 334
C[C@H]1CN(CCC(C)(C(=O)N(C)Cc2ccc(C(F)(F)F)nc2)c2ccc(Cl)c(Cl)c2)CCN1S(C)(=O)=O (stereo partly drawn) [Example 90, 2-(3,4-Dichloro-phenyl)-4-((S)-4-methanesulfonyl-3-methyl-piperazin-1-yl)-2,N-dimethyl-N-(6-trifluoromethyl-pyridin-3-ylmethyl)-butyramide] | 525
CN(Cc1ccc(Cl)c(Cl)c1)C(=O)C(C)(CCN1CCCN(S(C)(=O)=O)CC1)c1ccc(Cl)c(Cl)c1 (stereo not drawn) [Example 113, N-(3,4-Dichloro-benzyl)-2-(3,4-dichloro-phenyl)-4-(4-methanesulfonyl-[1,4]diazepan-1-yl)-2,N-dimethyl-butyramide] | 10.1
COc1cc(CN(C)C(=O)C(C)(CCN2CCN(S(C)(=O)=O)CC2)c2ccc(Cl)c(Cl)c2)ccc1OC(F)F (stereo not drawn) [Example 26, 2-(3,4-Dichloro-phenyl)-N-(4-difluoromethoxy-3-methoxy-benzyl)-4-(4-methanesulfonyl-piperazin-1-yl)-2,N-dimethyl-butyramide] | 275
CC(CCN1CCN(S(C)(=O)=O)CC1)(C(=O)NCc1ccc(C#N)cc1)c1ccc(Cl)c(Cl)c1 (stereo not drawn) [Example 18, N-(4-Cyano-benzyl)-2-(3,4-dichloro-phenyl)-4-(4-methanesulfonyl-piperazin-1-yl)-2-methyl-butyramide] | 434
C[C@@H]1CN(CCC(C)(C(=O)NCc2ccc(C#N)cc2)c2ccc(Cl)c(Cl)c2)CCN1S(C)(=O)=O (stereo partly drawn) [Example 57, N-(4-Cyano-benzyl)-2-(3,4-dichloro-phenyl)-4-((R)-4-methanesulfonyl-3-methyl-piperazin-1-yl)-2-methyl-butyramide] | 161
CN(Cc1ccc(Cl)c(C(F)(F)F)c1)C(=O)C(C)(CCN1CCCN(S(C)(=O)=O)CC1)c1ccc(Cl)c(Cl)c1 (stereo not drawn) [Example 111, N-(4-Chloro-3-trifluoromethyl-benzyl)-2-(3,4-dichloro-phenyl)-4-(4-methanesulfonyl-[1,4]diazepan-1-yl)-2,N-dimethyl-butyramide] | 6.7
CC(NC(=O)C(C)(CCN1CCN(S(C)(=O)=O)[C@@H](C)C1)c1ccc(Cl)c(Cl)c1)c1ccc(Cl)c(Cl)c1 (stereo partly drawn) [Example 80, 2-(3,4-Dichloro-phenyl)-N-[1-(3,4-dichloro-phenyl)-ethyl]-4-((S)-4-methanesulfonyl-3-methyl-piperazin-1-yl)-2-methyl-butyramide] | 16.2
C[C@@H]1CN(CCC(C)(C(=O)N(C)Cc2ccc(Cl)cc2)c2ccc(Cl)c(Cl)c2)CCN1S(C)(=O)=O (stereo partly drawn) [Example 56, N-(4-Chloro-benzyl)-2-(3,4-dichloro-phenyl)-4-((R)-4-methanesulfonyl-3-methyl-piperazin-1-yl)-2,N-dimethyl-butyramide] | 26.5
CC(CCN1CCN(S(C)(=O)=O)CC1)(C(=O)NC(c1ccc(F)cc1)C(F)(F)F)c1ccc(Cl)c(Cl)c1 (stereo not drawn) [Example 135, 2-(3,4-Dichloro-phenyl)-4-(4-methanesulfonyl-piperazin-1-yl)-2-methyl-N-[2,2,2-trifluoro-1-(4-fluoro-phenyl)-ethyl]-butyramide] | 196
CN(Cc1ccccc1Cl)C(=O)C(CCN1CCN(S(C)(=O)=O)CC1)c1ccc(Cl)c(Cl)c1 (stereo not drawn) [Example 3, N-(2-Chloro-benzyl)-2-(3,4-dichloro-phenyl)-4-(4-methanesulfonyl-piperazin-1-yl)-N-methyl-butyramide] | 655
CC(CCN1CCCN(S(C)(=O)=O)CC1)(C(=O)NCc1ccc(C(F)(F)F)c(F)c1)c1ccc(Cl)c(Cl)c1 (stereo not drawn) [Example 95, 2-(3,4-Dichloro-phenyl)-N-(3-fluoro-4-trifluoromethyl-benzyl)-4-(4-methanesulfonyl-[1,4]diazepan-1-yl)-2-methyl-butyramide] | 64.3

The remaining molecules from weak to strong by Ki, led by results:

Ki [nM] | SMILES
575 | CC(CCN1CCCN(S(C)(=O)=O)CC1)(C(=O)NCc1cc(F)ccc1C(F)(F)F)c1ccc(Cl)c(Cl)c1 (stereo not drawn) [Example 116, 2-(3,4-Dichloro-phenyl)-N-(5-fluoro-2-trifluoromethyl-benzyl)-4-(4-methanesulfonyl-[1,4]diazepan-1-yl)-2-methyl-butyramide]
545 | C[C@@H]1CN(CCC(C)(C(=O)NCc2ccc3nccnc3c2)c2ccc(Cl)c(Cl)c2)CCN1S(C)(=O)=O (stereo partly drawn) [Example 38, 2-(3,4-Dichloro-phenyl)-4-((R)-4-methanesulfonyl-3-methyl-piperazin-1-yl)-2-methyl-N-quinoxalin-6-ylmethyl-butyramide]
311 | C[C@H]1CN(CCC(C)(C(=O)NCc2cc(C(F)(F)F)ccc2F)c2ccc(Cl)c(Cl)c2)CCN1S(C)(=O)=O (stereo partly drawn) [Example 76, 2-(3,4-Dichloro-phenyl)-N-(2-fluoro-5-trifluoromethyl-benzyl)-4-((S)-4-methanesulfonyl-3-methyl-piperazin-1-yl)-2-methyl-butyramide]
171 | CC(NC(=O)C(C)(CCN1CCN(S(C)(=O)=O)CC1)c1ccc(Cl)c(Cl)c1)c1ccc(Cl)cc1 (stereo not drawn) [Example 14, N-[1-(4-Chloro-phenyl)-ethyl]-2-(3,4-dichloro-phenyl)-4-(4-methanesulfonyl-piperazin-1-yl)-2-methyl-butyramide]
169 | CN(Cc1ccccc1Cl)C(=O)C(C)(CCN1CCN(S(C)(=O)=O)CC1)c1ccc(Cl)c(Cl)c1 (stereo not drawn) [Example 16, N-(2-Chloro-benzyl)-2-(3,4-dichloro-phenyl)-4-(4-methanesulfonyl-piperazin-1-yl)-2,N-dimethyl-butyramide]
98.4 | CC(CCN1CCN(S(C)(=O)=O)CC1)(C(=O)NCc1ccc(Cl)cc1)c1ccc(Cl)c(Cl)c1 (stereo not drawn) [Example 29, N-(4-Chloro-benzyl)-2-(3,4-dichloro-phenyl)-4-(4-methanesulfonyl-piperazin-1-yl)-2-methyl-butyramide]
77.4 | Cc1ccc(CN(C)C(=O)C(C)(CCN2CCN(S(C)(=O)=O)CC2)c2ccc(Cl)c(Cl)c2)cc1 (stereo not drawn) [Example 22, 2-(3,4-Dichloro-phenyl)-4-(4-methanesulfonyl-piperazin-1-yl)-2,N-dimethyl-N-(4-methyl-benzyl)-butyramide]
67.4 | CC(NC(=O)C(C)(CCN1CCN(S(C)(=O)=O)[C@@H](C)C1)c1ccc(Cl)c(Cl)c1)c1ccc(Cl)cc1 (stereo partly drawn) [Example 77, N-[1-(4-Chloro-phenyl)-ethyl]-2-(3,4-dichloro-phenyl)-4-((S)-4-methanesulfonyl-3-methyl-piperazin-1-yl)-2-methyl-butyramide]
43.4 | CC(NC(=O)C(C)(CCN1CCCN(S(C)(=O)=O)CC1)c1ccc(Cl)c(Cl)c1)c1ccc(Cl)c(Cl)c1 (stereo not drawn) [Example 122, 2-(3,4-Dichloro-phenyl)-N-[1-(3,4-dichloro-phenyl)-ethyl]-4-(4-methanesulfonyl-[1,4]diazepan-1-yl)-2-methyl-butyramide]
19.2 | C[C@H]1CN(CC[C@](C)(C(=O)NCc2ccc(Cl)c(Cl)c2)c2ccc(Cl)c(Cl)c2)CCN1S(C)(=O)=O (single isomer, unassigned) [Example 93, (S or R)—N-(3,4-Dichloro-benzyl)-2-(3,4-dichloro-phenyl)-4-((R)-4-methanesulfonyl-3-methyl-piperazin-1-yl)-2-methyl-butyramide]
16.7 | C[C@@H]1CN(CCC(C)(C(=O)N(C)Cc2ccc(C(F)(F)F)c(F)c2)c2ccc(Cl)c(Cl)c2)CCN1S(C)(=O)=O (stereo partly drawn) [Example 40, 2-(3,4-Dichloro-phenyl)-N-(3-fluoro-4-trifluoromethyl-benzyl)-4-((R)-4-methanesulfonyl-3-methyl-piperazin-1-yl)-2,N-dimethyl-butyramide]
